This is an account of results in US20260258035A1, “FIVE-MEMBERED AND SIX-MEMBERED NITROGEN-CONTAINING COMPOUND, AND INTERMEDIATE, PREPARATION METHOD AND USE THEREOF” (HANGZHOU SYNRX THERAPEUTICS BIOMEDICAL TECHNOLOGY CO., LTD., priority 2022, published 2026).

In general, IC50 refers to the point on the concentration scale where inhibition reaches its midpoint.

Where two headings read alike, the source gives them in different places.

One assay relates to HCC1806. Briefly: Cell viability assay (CellTiter-Glo). The settings on record: HCC1806, 7 days, CellTiter-Glo, read-out: IC50 (nM) in cell viability assay. It counts as cell-based, Human.
Another assay deals with PARG (Homo sapiens, UniProt Q86W56). Nature of the assay: Biochemical assay (PARG, TFMU-ADPr substrate).
Assay [1] concerns Human breast squamous carcinoma cells HCC1806. Briefly: Cell function assay (In-Cell Western, PAR/pADPr after MMS). Format: cell-based. The settings on record: read-out: IC50 (nM) in cell function assay. In short, it runs like this:
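HCC1806 cells adhered 24 h at 37 °C, 5% CO2, then were pretreated 1 h with compound (30000 nM down to 1 nM, plus 0 nM) or DMSO. MMS was then added at 0.5 mM final for 1 h before In-Cell Western detection of PAR/pADPr.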

Setting [2] is: 4 nM PARG, 66.2 uM TFMU-ADPr, 3 min at room temperature.
The mark [3] stands for this setting: HCC1806, In-Cell Western, MMS treatment.
Where [4] appears, read: HCC1806, compound 1 h then 0.5 mM MMS 1 h, PAR/pADPr antibody, In-Cell Western.

Chain of PARG (Q86W56 whole entry): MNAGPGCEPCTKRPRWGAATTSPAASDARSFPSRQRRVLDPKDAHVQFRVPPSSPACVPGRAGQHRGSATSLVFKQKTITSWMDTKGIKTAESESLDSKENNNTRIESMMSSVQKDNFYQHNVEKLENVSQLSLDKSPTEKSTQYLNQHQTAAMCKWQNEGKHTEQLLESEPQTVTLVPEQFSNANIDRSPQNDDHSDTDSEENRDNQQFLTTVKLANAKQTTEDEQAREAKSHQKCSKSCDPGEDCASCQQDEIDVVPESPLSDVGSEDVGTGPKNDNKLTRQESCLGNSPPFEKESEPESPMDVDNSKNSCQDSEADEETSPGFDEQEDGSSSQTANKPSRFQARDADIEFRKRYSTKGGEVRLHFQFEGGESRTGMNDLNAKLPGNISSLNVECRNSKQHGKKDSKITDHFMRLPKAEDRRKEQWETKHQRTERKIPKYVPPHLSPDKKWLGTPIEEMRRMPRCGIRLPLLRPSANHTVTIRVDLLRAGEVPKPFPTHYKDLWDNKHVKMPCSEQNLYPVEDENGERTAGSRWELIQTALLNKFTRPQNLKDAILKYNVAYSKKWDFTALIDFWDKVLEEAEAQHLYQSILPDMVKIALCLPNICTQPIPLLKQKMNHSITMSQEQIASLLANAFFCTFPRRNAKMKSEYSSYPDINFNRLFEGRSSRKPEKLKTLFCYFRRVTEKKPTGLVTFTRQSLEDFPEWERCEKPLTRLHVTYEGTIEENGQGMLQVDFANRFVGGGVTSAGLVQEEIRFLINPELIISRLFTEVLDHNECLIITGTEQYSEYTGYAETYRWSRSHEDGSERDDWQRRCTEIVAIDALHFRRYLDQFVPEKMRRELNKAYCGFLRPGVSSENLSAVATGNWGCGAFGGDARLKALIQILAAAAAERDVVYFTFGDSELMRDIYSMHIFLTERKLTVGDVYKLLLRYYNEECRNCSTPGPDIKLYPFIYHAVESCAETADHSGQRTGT

Regarding `CC(C)C(=O)N1CCN(c2cc(S(=O)(=O)NC3(C)CC3)cn3c(-c4nnc(C(F)F)s4)nnc23)CC1` [Example 99, 3-(5-(difluoromethyl)-1,3,4-thiadiazol-2-yl)-8-(4-isobutyrylpiperazin-1-yl)-N-(1-methylcyclopropyl)-[1,2,4]triazolo[4,3-a]pyridine-6-sulfonamide], the IC50 with HCC1806 was 372 nM; in the assay with HCC1806 (Homo sapiens, HCC1806, 168 h), below 500 nM; against PARG (setting [2]), below 100 nM; on PARG (PARG, TFMU-ADPr substrate), 6.51 nM; in assay [1] (setting [3]), 26.8 nM; in assay [1] (setting [4]), below 100 nM.
On to `CC(C)C(=O)N1CCN(c2cc(S(=O)(=O)NC3(C#N)COC3)cn3c(-c4nnc(C(F)F)s4)ncc23)CC1` [Example 148, N-(3-cyanooxetan-3-yl)-3-(5-(difluoromethyl)-1,3,4-thiadiazol-2-yl)-8-(4-isobutyrylpiperazin-1-yl)imidazo[1,5-a]pyridine-6-sulfonamide], for which the 50% inhibitory concentration (IC50) was 8810 nM with HCC1806; 5000 to 30000 nM with HCC1806 (Homo sapiens, HCC1806, 168 h); below 100 nM against PARG (setting [2]); 2.04 nM at PARG (PARG, TFMU-ADPr substrate); 8510 nM in assay [1] (setting [3]); above 1000 nM in assay [1] (setting [4]).
As for `CC(C)C(=O)N1CCN(c2cc(S(=O)(=O)NC3(C)CC3)cn3c(-c4nnc(C(F)F)s4)ncc23)CC1` [Example 34, 3-(5-(difluoromethyl)-1,3,4-thiadiazol-2-yl)-8-(4-isobutyrylpiperazin-1-yl)-N-(1-methylcyclopropyl)imidazo[1,5-a]pyridine-6-sulfonamide], the IC50 in the assay on HCC1806 (Homo sapiens, HCC1806, 168 h) was below 500 nM; against PARG (setting [2]), below 100 nM; at PARG (PARG, TFMU-ADPr substrate), 1.22 nM; in assay [1] (setting [3]), 5.77 nM; in assay [1] (setting [4]), below 100 nM.
Take `CC(C)C(=O)N1CCN(c2c(F)c(S(=O)(=O)NC3(C#N)CC3)cn3c(-c4nnc(C(F)F)s4)ncc23)CC1` [Example 52, N-(1-cyanocyclopropyl)-3-(5-(difluoromethyl)-1,3,4-thiadiazol-2-yl)-7-fluoro-8-(4-isobutyrylpiperazin-1-yl)imidazo[1,5-a]pyridine-6-sulfonamide]: the IC50 in the assay with HCC1806 is 738 nM; in the assay with HCC1806 (Homo sapiens, HCC1806, 168 h) it was 500 to 5000 nM; at PARG (setting [2]), below 100 nM; at PARG (PARG, TFMU-ADPr substrate), 3.66 nM; in assay [1] (setting [3]), 53.2 nM; in assay [1] (setting [4]), 100 to 500 nM.
For the compound `CC(C)C(=O)N1CCN(c2cc(S(=O)(=O)NC3(CF)CC3)cn3c(-c4nnc(C(F)F)s4)nnc23)CC1` [Example 100, 3-(5-(difluoromethyl)-1,3,4-thiadiazol-2-yl)-N-(1-(fluoromethyl)cyclopropyl)-8-(4-isobutyrylpiperazin-1-yl)-[1,2,4]triazolo[4,3-a]pyridine-6-sulfonamide], the IC50 is 448 nM in the assay on HCC1806; below 500 nM with HCC1806 (Homo sapiens, HCC1806, 168 h); below 100 nM against PARG (setting [2]); 1.99 nM against PARG (PARG, TFMU-ADPr substrate); 4.96 nM in assay [1] (setting [3]); below 100 nM in assay [1] (setting [4]).
Consider `CC(C)C(=O)N1CCN(c2cc(S(=O)(=O)NC3(C#N)CC3)cn3c(-c4nnc(CO)s4)ncc23)CC1` [Example 366, N-(1-cyanocyclopropyl)-3-(5-(hydroxymethyl)-1,3,4-thiadiazol-2-yl)-8-(4-isobutyrylpiperazin-1-yl)imidazo[1,5-a]pyridine-6-sulfonamide], for which the IC50 was 7730 nM in the assay on HCC1806; 5000 to 30000 nM with HCC1806 (Homo sapiens, HCC1806, 168 h); below 100 nM at PARG (setting [2]); 7.94 nM on PARG (PARG, TFMU-ADPr substrate); 70.4 nM in assay [1] (setting [3]); below 100 nM in assay [1] (setting [4]).
In the case of `N#CC1(NS(=O)(=O)c2cc(N3CCN(C(=O)C4CC(F)(F)C4)CC3)c3cnc(-c4nnc(C(F)F)s4)n3c2)CC1` [Example 146, N-(1-cyanocyclopropyl)-8-(4-(3,3-difluorocyclobutane-1-carbonyl)piperazin-1-yl)-3-(5-(difluoromethyl)-1,3,4-thiadiazol-2-yl)imidazo[1,5-a]pyridine-6-sulfonamide], the IC50 is 692 nM in the assay with HCC1806; 500 to 5000 nM in the assay with HCC1806 (Homo sapiens, HCC1806, 168 h); below 100 nM against PARG (setting [2]); 11.5 nM against PARG (PARG, TFMU-ADPr substrate); 28.9 nM in assay [1] (setting [3]); below 100 nM in assay [1] (setting [4]).
With `[2H]c1nc(-c2nnc(C(F)F)s2)n2cc(S(=O)(=O)NC3(C)COC3)c(F)c(N3CCN(C(=O)C(C)C)CC3)c12` [Example 155, 3-(5-(difluoromethyl)-1,3,4-thiadiazol-2-yl)-7-fluoro-8-(4-isobutyrylpiperazin-1-yl)-N-(3-methyloxetan-3-yl)imidazo[1,5-a]pyridine-6-sulfonamide-1-d], the IC50 in the assay on HCC1806 is 727 nM; in the assay with HCC1806 (Homo sapiens, HCC1806, 168 h) it was 500 to 5000 nM; on PARG (setting [2]), below 100 nM; against PARG (PARG, TFMU-ADPr substrate), 1.68 nM; in assay [1] (setting [3]), 39.1 nM; in assay [1] (setting [4]), 100 to 500 nM.
Regarding `C[C@@H]1CN(c2cc(S(=O)(=O)NC3(C#N)CC3)cn3c(-c4nnc(C(F)F)s4)ncc23)C[C@H](C)N1C(=O)C1CC1` [Example 78, N-(1-cyanocyclopropyl)-8-((3R,5S)-4-(cyclopropanecarbonyl)-3,5-dimethylpiperazin-1-yl)-3-(5-(difluoromethyl)-1,3,4-thiadiazol-2-yl)imidazo[1,5-a]pyridine-6-sulfonamide], the IC50 with HCC1806 is 866 nM; in the assay on HCC1806 (Homo sapiens, HCC1806, 168 h), 500 to 5000 nM; against PARG (setting [2]), below 100 nM; at PARG (PARG, TFMU-ADPr substrate), 7.59 nM; in assay [1] (setting [3]) it was 7.34 nM; in assay [1] (setting [4]) it was below 100 nM.
With `C[C@@H]1CN(c2cc(S(=O)(=O)NC3(C#N)CC3)cn3c(-c4nnc(C(F)F)s4)ncc23)CCN1C(=O)C(C)(C)F` [Example 94, (R)-N-(1-cyanocyclopropyl)-3-(5-(difluoromethyl)-1,3,4-thiadiazol-2-yl)-8-(4-(2-fluoro-2-methylpropanoyl)-3-methylpiperazin-1-yl)imidazo[1,5-a]pyridine-6-sulfonamide], the IC50 with HCC1806 was 350 nM; in the assay on HCC1806 (Homo sapiens, HCC1806, 168 h), below 500 nM; on PARG (setting [2]), below 100 nM; against PARG (PARG, TFMU-ADPr substrate), 9.55 nM; in assay [1] (setting [3]), 23.4 nM; in assay [1] (setting [4]), below 100 nM.
Consider `CC1(C(=O)N2CCN(c3cc(S(=O)(=O)NC4(C#N)CC4)cn4c(-c5nnc(C(F)F)s5)ncc34)CC2)CC1` [Example 76, N-(1-cyanocyclopropyl)-3-(5-(difluoromethyl)-1,3,4-thiadiazol-2-yl)-8-(4-(1-methylcyclopropane-1-carbonyl)piperazin-1-yl)imidazo[1,5-a]pyridine-6-sulfonamide], for which the IC50 in the assay on HCC1806 was 450 nM; with HCC1806 (Homo sapiens, HCC1806, 168 h), below 500 nM; at PARG (setting [2]), below 100 nM; at PARG (PARG, TFMU-ADPr substrate), 13.8 nM; in assay [1] (setting [3]), 3.59 nM; in assay [1] (setting [4]), below 100 nM.
As for `O=S(=O)(NC1(CF)CC1)c1cc(N2CCC3(CCO3)CC2)c2nnc(-c3nnc(C(F)F)s3)n2c1` [Example 110, 3-(5-(difluoromethyl)-1,3,4-thiadiazol-2-yl)-N-(1-(fluoromethyl)cyclopropyl)-8-(1-oxa-7-azaspiro[3.5]nonan-7-yl)-[1,2,4]triazolo[4,3-a]pyridine-6-sulfonamide], the IC50 in the assay with HCC1806 is 850 nM; with HCC1806 (Homo sapiens, HCC1806, 168 h), 500 to 5000 nM; against PARG (setting [2]), below 100 nM; against PARG (PARG, TFMU-ADPr substrate), 14 nM; in assay [1] (setting [3]), 89.5 nM; in assay [1] (setting [4]) it was below 100 nM.
Consider `CC(C)C(=O)N1CC=C(c2cc(S(=O)(=O)NC3(C#N)CC3)cn3c(-c4nnc(C(F)F)s4)cnc23)CC1` [Example 12, N-(1-cyanocyclopropyl)-3-(5-(difluoromethyl)-1,3,4-thiadiazol-2-yl)-8-(1-isobutyryl-1,2,3,6-tetrahydropyridin-4-yl)imidazo[1,2-a]pyridine-6-sulfonamide], for which the IC50 in the assay with HCC1806 was 500 nM; in the assay with HCC1806 (Homo sapiens, HCC1806, 168 h) it was below 500 nM; against PARG (setting [2]) it was below 100 nM; against PARG (PARG, TFMU-ADPr substrate) it was 2.4 nM; in assay [1] (setting [3]), 9.15 nM.
For the compound `CC1(NS(=O)(=O)c2cc(N3CCC4(CC3)COC4)c3cnc(-c4nnc(C(F)F)s4)n3c2)COC1` [Example 56, 3-(5-(difluoromethyl)-1,3,4-thiadiazol-2-yl)-N-(3-methyloxetan-3-yl)-8-(2-oxa-7-azaspiro[3.5]nonan-7-yl)imidazo[1,5-a]pyridine-6-sulfonamide], the IC50 with HCC1806 is 802 nM; with HCC1806 (Homo sapiens, HCC1806, 168 h), 500 to 5000 nM; at PARG (setting [2]), below 100 nM; against PARG (PARG, TFMU-ADPr substrate), 0.86 nM; in assay [1] (setting [3]) it was 22.9 nM; in assay [1] (setting [4]), below 100 nM.
As to `C[C@@H]1CN(c2cc(S(=O)(=O)NC3(C#N)CC3)cn3c(-c4nnc(C(F)F)s4)ncc23)CCN1C(=O)C(C)(C)C` [Example 84, (R)-N-(1-cyanocyclopropyl)-3-(5-(difluoromethyl)-1,3,4-thiadiazol-2-yl)-8-(3-methyl-4-pivaloylpiperazin-1-yl)imidazo[1,5-a]pyridine-6-sulfonamide], the IC50 in the assay on HCC1806 is 472 nM; in the assay on HCC1806 (Homo sapiens, HCC1806, 168 h) it was below 500 nM; against PARG (setting [2]), below 100 nM; against PARG (PARG, TFMU-ADPr substrate), 11 nM; in assay [1] (setting [3]), 6.85 nM; in assay [1] (setting [4]) it was below 100 nM.
With `C[C@@H]1CN(c2cc(S(=O)(=O)NC3(C#N)CC3)cn3c(-c4nnc(C(F)(F)F)s4)ncc23)CCN1C(=O)C1(C)CC1` [Example 80, (R)-N-(1-cyanocyclopropyl)-8-(3-methyl-4-(1-methylcyclopropane-1-carbonyl)piperazin-1-yl)-3-(5-(trifluoromethyl)-1,3,4-thiadiazol-2-yl)imidazo[1,5-a]pyridine-6-sulfonamide], the 50% inhibitory concentration (IC50) in the assay with HCC1806 was 764 nM; in the assay with HCC1806 (Homo sapiens, HCC1806, 168 h) it was 500 to 5000 nM; against PARG (setting [2]) it was below 100 nM; against PARG (PARG, TFMU-ADPr substrate) it was 28.8 nM; in assay [1] (setting [3]), 7.57 nM; in assay [1] (setting [4]), below 100 nM.
